{"source": "patent US12252417B2", "about": "“Passive, gravity-driven system for treatment of an effluent in a diagnostic system” (Ventana Medical Systems, Inc., priority 2016, dated 2025)", "key": {"[1]": {"test": "Thermal radical initiator screening, DAB decomposition by sonication in BenchMark Reaction Buffer", "settings": "for Effect on DAB decomposition with sonication: BenchMark Reaction Buffer; for Sonication time after which no DAB monomer was detectable: DAB 68.1 mg/L in BenchMark Reaction Buffer, initiator approx. 0.0882 mmol per 25 mL", "description": "Sonication can form acoustic cavitation in liquids causing the formation, growth and implosive collapse of bubbles and heat generation. Sonication was used to thermally activate thermal radical initiators to induce DAB decomposition. Thermal radical initiator screening experiments were performed using a MisonixSonicator 3000 Ultrasonic Liquid Processor. The sonicator voltage converter and horn were connected to a microtip probe. […] A DAB sample in RTD BenchMark Reaction Buffer (68.1 mg/L) was sonicated with or without the presence of a thermal radical initiator. […] The sonication mixed the sample efficiently."}, "[2]": {"test": "Radical initiator screening in DAB UV oxidation (Aquatop 10 W in-line UV sterilizer, BenchMark Reaction Buffer)", "settings": "for Impact on DAB UV oxidation: 30 min UV exposure, relative to no initiator; for % Loss DAB (30 min UV): DAB 68.1 mg/L in BenchMark Reaction Buffer, initiator approx. 0.882 mmol per 250 mL, 10 W"}, "[3]": {"test": "DAB UV oxidation in in-line UV sterilizers, BenchMark IHC waste matrix", "settings": "for UV irradiation time for DAB monomer to decrease to LOD: 55 W", "method": "DAB degradation rates were determined using HPLC analysis to monitor DAB concentration change in Milli-Q® deionized (“DDI”) water, BenchMark Reaction Buffer and BenchMark IHC waste matrices. HPLC analyses were performed on a Waters Acquity Ultra Performance Liquid Chromatography (“UPLC”) instrument with photodiode array (“PDA”) detection. Standard reverse phase chromatography was used for UPLC analyses in BenchMark Reaction Buffer and DDI water matrices. Reverse phase HPLC chromatography with ion-pairing was used for DAB analysis in BenchMark waste. DAB samples were analyzed without filtration or dilution.\nA SIELC PrimeSep S column 2.1×100 mm (5μ) and 2.1×10 mm guard column HPLC column was used. The eluents were 40% acetonitrile in 50 mM ammonium formate (pH=4.0). The flow rate was 0.2 mL/min, the gradient profile was an isocratic elution, the column temperature was 30° C., and the injection volume was 8 μL. The PDA detection wavelengths were 210 to 499 nm (2.4 nm resolution and 20 pts/sec). The expected retention time (in BenchMark waste) for DAB and 2-HOPyr was 2.56 min and 1.64 min, respectively.\nMultiple UV irradiation flow-through systems were used to examine UV promoted DAB oxidation. A commercial in-line UV water sterilizers with preset lamp wattage and UV irradiation chamber geometry, namely, an Aquatop 10 W In-line UV sterilizer (Aquatop p/n: IL10-UV), was used to treat water up to a 211 gallon/hour flow rate. The sterilizer featured an external variable-speed micropump gear pump that controlled fluid flow rates with the assistance of an independent power supply. Samples were irradiated with active mixing, dwell mixing, or no mixing. For in-line UV sterilizers that were used without mixing pumps, inversion mixing was performed to create a uniform sample prior to sampling. Multiple UV sterilizer UV lamp wattages were examined (10, 18 and 55 W). Multiple UV irradiation sources may be installed adjacently with serial connection to each other to increase effluent exposure time.\nDAB UV oxidation experiments were performed in the Aquatop 10 W in-line UV sterilizer as above with variable sample matrices (i.e. DDI water versus BenchMark IHC Waste). […] A fresh BenchMark Ultra OptiView DAB with TSA Amp IHC Waste was used for this experiment where the aqueous layer was separated from a majority of the LCS by gravity. The BenchMark IHC Waste still contained some LCS, which was finely dispersed with the BenchMark IHC waste surfactants. Both samples were irradiated by UV light for 75 minutes. The Aquatop in-line sterilizer was inverted (2×) using an air pocket to mix the matrix uniformly prior to sampling. The reaction mixture was analyzed by UPLC every 10 minutes.\nDAB UV oxidation experiments were performed within in-line UV water sterilizers with different UV lamp wattages. […] The Aquatop in-line sterilizer was inverted (2×) using an air pocket to mix the matrix uniformly prior to sampling. The reaction mixture was analyzed by UPLC every 10 minutes."}, "[4]": {"test": "DAB UV oxidation in in-line UV sterilizer, DDI water matrix", "assay_type": "physicochemical", "description": "A DAB sample in DDI water (68.1 mg/L) was treated with 3% hydrogen peroxide as a radical initiator (1 mL per approx. 225 mL DAB sample). […] Mixing aided the diffusion of the homolytic hydrogen peroxide UV oxidation product (HO·), which oxidized DAB.\nThe sample was irradiated by UV light (60 to 90 min)."}, "[5]": {"test": "DAB UV oxidation in 36 W top-down UV irradiation test bed, Reaction Buffer matrix", "assay_type": "physicochemical", "description": "As shown in FIGS. 9A-9C, a test bed was prepared to investigate top-down UV irradiation systems without direct liquid contact to the UV irradiation source (also referred to as “UV lamp light”). This test bed used two 18 W lamps to irradiate the fluid matrix from above while the liquid meandered through a predetermined path in the metal tray below to control sample exposure time. The UV light sources may be installed adjacently in parallel connection to each other (e.g. UV light array, etc.) to increase the power of the array. Alternatively, the UV light sources may be installed serially to increase exposure time. A second bottom irradiation plastic container was prepared without the pathway. UV light is absorbed as it goes through a liquid medium causing the aqueous layer furthest from the lamp to receive less UV irradiation. This test bed was used to examine liquid layer thickness and waste matrix impurities (i.e. LCS, DAB oxidation products, etc.) impact on DAB UV decomposition rates.\nThe 36 W top-down UV irradiation test bed without direct sample liquid contact to the UV light source was used to investigate matrix layer thickness tolerance during DAB UV irradiation (FIGS. 9A-9C). UV light is absorbed as it goes through a liquid medium causing the aqueous layer furthest from the lamp to receive less UV irradiation. A DAB sample in Reaction Buffer matrix was prepared at the expected waste concentration with approximately 20% (v/v) LCS. OptiView DAB IHC detection kit DAB chromogen, detection peroxide and inhibitor peroxide reagents were added to BenchMark Reaction Buffer matrix (143 μL each reagent per 250 mL). The 36 W top-down UV irradiation test bed bottom was filled with a specific matrix layer thickness (i.e. 10-, 20- or 30-mm thickness). The DAB sample was treated with UV irradiation without mixing and a sample was removed every 2 minutes to 10 minutes and then every 5 minutes thereafter through 30 minutes. The matrix sample was analyzed by RP UPLC.\nThe 36 W top-down UV irradiation test bed without direct sample liquid contact to the UV light source was used to investigate how LCS could be tolerated during DAB UV irradiation in a top-down configuration. A DAB sample in Reaction Buffer matrix was prepared at the expected waste concentration with or without approximately 20% (v/v) LCS. OptiView DAB IHC detection kit DAB chromogen, detection peroxide and inhibitor peroxide reagents were added to Reaction Buffer matrix (143 μL each reagent per 250 mL). These Reaction Buffer/LCS mixed matrix was tested with LCS not mixed, mixed by inversion 20× to form an initial bubble LCS emulsion, and vigorously mixed to form an initial opaque LCS emulsion.\nThe 36 W top-down UV irradiation test bed bottom was filled with a 10 mm volume layer thickness. The DAB sample was treated with UV irradiation without mixing and a sample was removed every 2 minutes to 10 minutes and then every 5 minutes thereafter through 30 minutes. The matrix sample was analyzed by RP UPLC. […] These DAB intermediates remained in solution longer when the opaque white LCS layer was present."}}, "note": "Entries after “also recorded” stand apart in the source; their conditions may differ."}
{"smiles": "CC(C)(N=NC(C)(C)C(=N)N)C(=N)N", "note": "[2,2′-azobis(2-methylpropionatnidine)]", "values": [{"measurement": "Effect on DAB decomposition with sonication", "setting": "[1]", "result": "promoted DAB oxidation with sonication"}]}
{"smiles": "CC(C#N)(CCC(=O)O)N=NC(C)(C#N)CCC(=O)O", "note": "(stereo not shown) [4,4′-azobis(4-cyanovaleric acid)]", "values": [{"measurement": "Effect on DAB decomposition with sonication", "setting": "[1]", "result": "promoted DAB oxidation with sonication"}]}
{"smiles": "Nc1ccc(C(=O)c2ccccc2)cc1", "note": "[ABP, 4-amino-benzophenone]", "values": [{"measurement": "Impact on DAB UV oxidation", "setting": "[2]", "result": "appeared to inhibit DAB oxidation"}, {"measurement": "% Loss DAB (30 min UV)", "setting": "[2]", "result": 16, "unit": "%"}]}
{"smiles": "CC(C)(C#N)N=NC(C)(C)C#N", "note": "[AIBN, azobisisobutyronitrile]", "values": [{"measurement": "Sonication time after which no DAB monomer was detectable", "setting": "[1]", "result": 25, "unit": "min"}, {"measurement": "Impact on DAB UV oxidation", "setting": "[2]", "result": "minimal impact on DAB UV oxidation"}, {"measurement": "% Loss DAB (30 min UV)", "setting": "[2]", "result": 64, "unit": "%"}]}
{"smiles": "N.N.O=S(=O)(O)OOS(=O)(=O)O", "note": "[APS, ammonium persulfate]", "values": [{"measurement": "Sonication time after which no DAB monomer was detectable", "setting": "[1]", "result": "≤ 5", "unit": "min"}, {"measurement": "% Loss DAB (30 min UV)", "setting": "[2]", "result": 100, "unit": "%"}, {"measurement": "DAB loss", "setting": "[2]; after 2 minutes exposure to the initiator", "result": "> 95", "unit": "%"}]}
{"smiles": "CCN(CC)c1ccc(C(=O)c2ccc(N(CC)CC)cc2)cc1", "note": "[BDABP, 4,4′-bisdiethylaminobenzophenone]", "values": [{"measurement": "Impact on DAB UV oxidation", "setting": "[2]", "result": "decreased the amount of DAB monomer found in solution"}, {"measurement": "% Loss DAB (30 min UV)", "setting": "[2]", "result": 68, "unit": "%"}]}
{"smiles": "O=C(OOC(=O)c1ccccc1)c1ccccc1", "note": "[Benzoyl Peroxide, benzoyl peroxide]", "values": [{"measurement": "Sonication time after which no DAB monomer was detectable", "setting": "[1]", "result": 5, "unit": "min"}, {"measurement": "Impact on DAB UV oxidation", "setting": "[2]", "result": "decreased the amount of DAB monomer found in solution"}, {"measurement": "% Loss DAB (30 min UV)", "setting": "[2]", "result": 72, "unit": "%"}]}
{"smiles": "Nc1ccc(-c2ccc(N)c(N)c2)cc1N", "note": "[DAB, 3,3′-diaminobenzidine]", "values": [{"measurement": "Time to DAB monomer at or below HPLC LOD", "setting": "[3]; BenchMark IHC waste, 10 W, 3 mL 3% peroxide per 250 mL", "result": "≤ 30", "unit": "min"}, {"measurement": "UV irradiation time for DAB monomer to decrease below LOD", "setting": "[3]; BenchMark IHC waste, 18 W, 3% hydrogen peroxide 20 mL per approx. 1.5 L", "result": "Approximately 90 minutes"}, {"measurement": "UV irradiation time for DAB monomer to decrease to LOD", "setting": "[3]; BenchMark IHC waste, 3% hydrogen peroxide 20 mL per approx. 1.5 L", "result": 30, "unit": "min"}, {"measurement": "DAB monomer still detectable", "setting": "[3]; BenchMark waste, 10 W, 60 minutes UV irradiation, without hydrogen peroxide", "result": "about 21%"}, {"measurement": "UV irradiation time for DAB monomer to decrease to LOD", "setting": "[3]; both BenchMark IHC waste matrices (with and without LCS emulsion), hydrogen peroxide", "result": "30 to 40", "unit": "min"}, {"measurement": "DAB monomer detected", "setting": "[4]; 10 W in-line UV sterilizer, 15 minutes of static UV irradiation without any mixing", "result": "Approximately 34%"}, {"measurement": "DAB monomer still detectable", "setting": "[4]; 10 W, 60 minutes UV irradiation, absence of hydrogen peroxide", "result": "Approximately 10%"}, {"measurement": "UV irradiation time after which no DAB monomer was detected", "setting": "[4]; 10 W, presence of hydrogen peroxide (1 mL 3% per approx. 225 mL)", "result": 50, "unit": "min"}, {"measurement": "UV irradiation time after which DAB monomer was not detectable", "setting": "[4]; 55 W UV in-line sterilizer, RP UPLC, data not shown", "result": "20 to 30", "unit": "min"}, {"measurement": "DAB monomer by UPLC after storage overnight at 10° C.", "setting": "[4]; samples that received only 2 minutes UV irradiation", "result": "not detected; also recorded: No DAB monomer was detected"}, {"measurement": "UV irradiation time to no DAB intermediates (dimers, trimers)", "setting": "[5]; 10 mm matrix layer thickness", "result": "15 to 20", "unit": "min"}, {"measurement": "UV irradiation time to no DAB intermediates (dimers, trimers)", "setting": "[5]; 20 mm matrix layer thickness", "result": 25, "unit": "min"}, {"measurement": "UV irradiation time to no DAB intermediates (dimers, trimers)", "setting": "[5]; 30 mm matrix layer thickness, intermediates still shown", "result": "> 30", "unit": "min"}, {"measurement": "UV irradiation time to no DAB intermediates", "setting": "[5]; Reaction Buffer only matrix, 10 mm layer", "result": "4 to 6", "unit": "min"}, {"measurement": "UV radiation time after which no DAB monomer was detected", "setting": "[5]; all aqueous layer thicknesses (10, 20, 30 mm), approx. 20% (v/v) LCS, no mixing", "result": "2 to 4", "unit": "min"}, {"measurement": "UV radiation time after which no DAB monomer was detected", "setting": "[5]; all sample matrices (with or without LCS, emulsions), 10 mm layer", "result": "2 to 4", "unit": "min"}, {"measurement": "UV irradiation time to no DAB intermediates", "setting": "[5]; clear LCS layered matrix, 10 mm layer", "result": "10 to 15", "unit": "min"}, {"measurement": "UV irradiation time to no DAB intermediates", "setting": "[5]; other LCS emulsion samples, 10 mm layer", "result": "20 to 25", "unit": "min"}, {"measurement": "DAB monomer still detectable", "setting": "[2]; BenchMark Reaction Buffer, 60 minutes UV irradiation, absence of hydrogen peroxide", "result": "Approximately 38%"}, {"measurement": "DAB monomer detected", "setting": "[2]; BenchMark Reaction Buffer, 60 minutes of UV irradiation, presence of hydrogen peroxide", "result": "Less than 5%"}]}
{"smiles": "OO", "note": "[Hydrogen Peroxide, hydrogen peroxide]", "values": [{"measurement": "Solubility in water", "result": "completely soluble in water"}, {"measurement": "Effect on DAB decomposition with sonication", "setting": "[1]", "result": "failed to show any substantial DAB decomposition"}, {"measurement": "% Loss DAB (30 min UV)", "setting": "[2]", "result": 96, "unit": "%"}]}
{"smiles": "CC(=O)OO", "note": "[Peracetic Acid, peracetic acid]", "values": [{"measurement": "Solubility in water", "result": "completely soluble in water"}, {"measurement": "Impact on DAB UV oxidation", "setting": "[2]", "result": "decreased the amount of DAB monomer found in solution"}, {"measurement": "% Loss DAB (30 min UV)", "setting": "[2]", "result": 73, "unit": "%"}]}
{"smiles": "CC1(C)CCCC(C)(C)N1[O]", "note": "[TEMPO]", "values": [{"measurement": "Impact on DAB UV oxidation", "setting": "[2]", "result": "appeared to inhibit DAB oxidation"}, {"measurement": "% Loss DAB (30 min UV)", "setting": "[2]", "result": 45, "unit": "%"}]}
